Earlier results as cited in PMC6347699 (Proceedings of the National Academy of Sciences of the …, 2019).
“Also recorded” adds a separate entry of the source. Ends that are not written are not given here.

Tests used:
[1] = system: Eco RNAP
[2] = system: Gram-negative enterobacteria; conditions: range of Gram-negative enterobacteria
[3] = harsh denaturing conditions
[4] = system: RNAP backtracking

Substance | inhibition of Eco RNAP [1] | mode of inhibition with respect to NTPs [1] | Ki ([1]; read-out: Ki, inhibition of Eco RNAP in in vitro transcription reactions) | antimicrobial properties [2] | stability of structure and activity [3] | inhibition of RNAP backtracking [4]
acinetodin [reference compound] | inhibit Eco RNAP | – | – | – | – | –
klebsidin [reference compound] | inhibit Eco RNAP | – | – | – | – | –
microcin J25 (GGAGHVPEYFVGIGTPISFYG; ends and bridges not checked; UniProt Q9X2V7 38-58, looked up) [MccJ25] | – | partially competitive; also recorded: partial competitive | ~1000 nM | antimicrobial properties against a range of Gram-negative enterobacteria | stable to harsh denaturing conditions | inhibit RNAP backtracking
